Earlier results in patent US5041577A, “Organogermanium compounds, processes for producing the same, and agent for inhibiting the activity of opioid peptide-degrading enzyme” (Asai Germanium Research Institute Co., Ltd., priority 1989, dated 1991).

Assays:
[1] = tested on: spontaneous hypertensive rats

For `O=C(O)C[CH2][Ge](=[O])[O][Ge](=[O])[CH2]CC(=O)O` [carboxyethylgermanium sesquioxide], the amyloidosis-alleviating action (amyloidosis) is given as “amyloidosis-alleviating action”, the macrophage-augmenting action (macrophage) is given as “macrophage-augmenting action” and the antitumor action (tumor) is given as “antitumor action”. The interferon-inducing action (interferon) was “interferon-inducing action” and the hypotensive action [1] was “shows a hypotensive action”.
